From ChEMBL document CHEMBL1201862, “PubChem BioAssay data set” (2004) come the findings set out here.

Each structure is given as a SMILES string. Active and inactive are the calls of the source.

Assay [1] deals with T1, Neuropeptides B/W receptor type 1 (Homo sapiens, UniProt P48145).
T1 sequence (P48145 whole entry): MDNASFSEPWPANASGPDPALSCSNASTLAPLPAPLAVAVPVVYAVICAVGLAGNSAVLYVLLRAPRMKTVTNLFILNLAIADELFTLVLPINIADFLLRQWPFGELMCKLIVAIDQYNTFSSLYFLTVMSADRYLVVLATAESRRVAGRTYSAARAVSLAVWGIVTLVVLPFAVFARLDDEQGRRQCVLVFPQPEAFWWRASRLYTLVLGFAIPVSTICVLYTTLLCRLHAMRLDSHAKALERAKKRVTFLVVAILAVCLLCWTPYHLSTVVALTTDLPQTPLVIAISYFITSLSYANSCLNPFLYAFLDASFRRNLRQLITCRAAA
Kind of assay: GPR7 antagonist potency, late-stage follow-up, cell-based, fluorescence, dose response, set 5 (AID 588566). It counts as functional.

The target in assay [2] is T2, Melanin-concentrating hormone receptor 1 (Homo sapiens, UniProt Q99705). Nature of the assay: Late-stage fluorescence-based counterscreen for antagonists of the G-protein coupled receptor 7 (GPR7): cell-based dose response assay to identify antagonists of the melanin-concentrating hormone receptor 1 (MCHR1) Set 5. Format: functional. For orientation: A counterscreen serves to expose hits that act by an unwanted route or on another target.
T2 sequence (Q99705 whole entry): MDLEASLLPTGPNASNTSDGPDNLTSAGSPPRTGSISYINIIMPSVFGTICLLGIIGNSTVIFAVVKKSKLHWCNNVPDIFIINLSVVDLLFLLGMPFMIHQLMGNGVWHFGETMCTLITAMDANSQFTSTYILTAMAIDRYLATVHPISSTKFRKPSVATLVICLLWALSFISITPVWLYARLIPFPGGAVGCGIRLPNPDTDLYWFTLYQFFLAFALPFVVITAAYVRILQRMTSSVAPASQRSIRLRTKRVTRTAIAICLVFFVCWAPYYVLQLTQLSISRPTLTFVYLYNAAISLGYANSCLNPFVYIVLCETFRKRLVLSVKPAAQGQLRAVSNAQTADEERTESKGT

In assay [3] the target is T3, Apoptotic protease-activating factor 1 (Homo sapiens, UniProt O14727).
T3 sequence (O14727 whole entry): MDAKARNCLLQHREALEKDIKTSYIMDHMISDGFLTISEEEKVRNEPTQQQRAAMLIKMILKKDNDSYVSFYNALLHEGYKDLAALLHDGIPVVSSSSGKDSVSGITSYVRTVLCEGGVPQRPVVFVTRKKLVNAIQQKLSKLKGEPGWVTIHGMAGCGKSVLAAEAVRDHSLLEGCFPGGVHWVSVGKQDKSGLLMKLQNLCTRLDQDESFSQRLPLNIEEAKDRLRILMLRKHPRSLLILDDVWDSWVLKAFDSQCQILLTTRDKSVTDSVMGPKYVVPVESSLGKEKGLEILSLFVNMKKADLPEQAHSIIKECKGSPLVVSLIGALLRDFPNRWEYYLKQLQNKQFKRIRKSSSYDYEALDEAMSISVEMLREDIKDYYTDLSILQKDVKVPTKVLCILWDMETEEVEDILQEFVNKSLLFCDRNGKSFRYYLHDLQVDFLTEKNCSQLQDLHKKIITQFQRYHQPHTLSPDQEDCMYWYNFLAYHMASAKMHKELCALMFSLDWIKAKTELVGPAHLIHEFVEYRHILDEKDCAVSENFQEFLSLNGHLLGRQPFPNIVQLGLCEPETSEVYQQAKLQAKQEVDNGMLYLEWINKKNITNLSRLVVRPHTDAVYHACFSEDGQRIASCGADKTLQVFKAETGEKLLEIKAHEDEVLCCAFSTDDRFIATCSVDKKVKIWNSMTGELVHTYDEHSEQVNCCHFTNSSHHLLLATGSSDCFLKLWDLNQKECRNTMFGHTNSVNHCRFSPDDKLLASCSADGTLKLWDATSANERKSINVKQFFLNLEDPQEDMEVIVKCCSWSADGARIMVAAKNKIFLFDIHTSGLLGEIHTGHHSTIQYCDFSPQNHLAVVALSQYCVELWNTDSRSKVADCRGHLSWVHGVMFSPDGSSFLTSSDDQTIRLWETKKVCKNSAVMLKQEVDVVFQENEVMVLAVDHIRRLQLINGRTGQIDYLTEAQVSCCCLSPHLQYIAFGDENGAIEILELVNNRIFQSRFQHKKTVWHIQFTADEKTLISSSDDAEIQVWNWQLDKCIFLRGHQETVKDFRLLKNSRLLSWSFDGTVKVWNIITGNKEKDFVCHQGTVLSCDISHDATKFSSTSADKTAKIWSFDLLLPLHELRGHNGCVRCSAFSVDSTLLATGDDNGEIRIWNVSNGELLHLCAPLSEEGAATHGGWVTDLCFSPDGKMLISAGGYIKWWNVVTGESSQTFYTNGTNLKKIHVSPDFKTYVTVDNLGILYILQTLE
Nature of the assay: SAR analysis of small molecule Activators of Apaf-1 in a Fluorescent assay. Format: functional. To be noted: read-out: EC50_Mean.

Assay [4] can be described thus: SAR analysis of small molecule activators of Apaf-1 using a LZ-Caspase-9/Caspase-3 Fluorescent Selectivity assay - Set 2. Format: functional. To be noted: read-out: EC50_Mean.
Assay [5] concerns the target T3, Apoptotic protease-activating factor 1. Nature of the assay: SAR analysis of small molecule Activators of Apaf-1 in a Fluorescent assay - set 2. Format: functional. To be noted: read-out: EC50_Mean.
The target in assay [6] is Dual specificity tyrosine-phosphorylation-regulated kinase 1B (Homo sapiens, UniProt Q9Y463). Kind of assay: Navigating the Kinome. Panel member name: DYRK1B. It counts as functional.
The target of assay [7] is Leukocyte tyrosine kinase receptor (Homo sapiens, UniProt P29376). Nature of the assay: Navigating the Kinome. Panel member name: LTK. It counts as functional.
Leukocyte tyrosine kinase receptor, sequence (P29376 whole entry): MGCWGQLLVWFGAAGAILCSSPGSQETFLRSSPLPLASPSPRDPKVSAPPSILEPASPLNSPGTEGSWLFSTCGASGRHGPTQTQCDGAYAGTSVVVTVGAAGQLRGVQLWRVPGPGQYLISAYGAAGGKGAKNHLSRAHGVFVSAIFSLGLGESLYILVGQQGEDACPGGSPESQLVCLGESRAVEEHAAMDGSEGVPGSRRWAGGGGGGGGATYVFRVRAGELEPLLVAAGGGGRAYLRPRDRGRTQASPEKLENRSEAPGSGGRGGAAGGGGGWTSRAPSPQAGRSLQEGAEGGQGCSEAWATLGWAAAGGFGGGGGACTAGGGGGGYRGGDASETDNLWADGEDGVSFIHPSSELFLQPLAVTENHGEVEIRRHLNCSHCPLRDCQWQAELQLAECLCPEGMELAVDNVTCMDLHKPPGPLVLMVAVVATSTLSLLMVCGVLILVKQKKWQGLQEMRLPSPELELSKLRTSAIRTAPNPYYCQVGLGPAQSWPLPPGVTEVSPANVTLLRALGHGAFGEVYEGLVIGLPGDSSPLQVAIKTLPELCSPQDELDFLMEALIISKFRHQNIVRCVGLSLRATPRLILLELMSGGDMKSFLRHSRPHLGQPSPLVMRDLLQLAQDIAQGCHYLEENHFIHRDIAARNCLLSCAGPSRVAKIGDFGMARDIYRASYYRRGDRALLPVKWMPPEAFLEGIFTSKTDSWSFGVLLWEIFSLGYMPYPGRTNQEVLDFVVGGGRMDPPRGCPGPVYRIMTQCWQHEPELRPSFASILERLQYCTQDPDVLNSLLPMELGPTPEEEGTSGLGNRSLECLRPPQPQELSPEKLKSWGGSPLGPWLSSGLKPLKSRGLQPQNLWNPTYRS
Assay [8] concerns the target Dual specificity tyrosine-phosphorylation-regulated kinase 1A (Homo sapiens, UniProt Q13627). It counts as functional.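 Note: measured against DYRK1A as one member of a broad kinome profiling panel.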
Assay [9] addresses Death-associated protein kinase 3 (Homo sapiens, UniProt O43293). It counts as functional.
The target of assay [10] is Vascular endothelial growth factor receptor 2 (Homo sapiens, UniProt P35968). Format: functional.
Assay [11] addresses Rho-associated protein kinase 1 (Homo sapiens, UniProt Q13464). Format: functional.
In assay [12] the target is Tyrosine-protein kinase ABL1 (Homo sapiens, UniProt P00519). Format: functional.
Tyrosine-protein kinase ABL1, sequence (P00519 whole entry): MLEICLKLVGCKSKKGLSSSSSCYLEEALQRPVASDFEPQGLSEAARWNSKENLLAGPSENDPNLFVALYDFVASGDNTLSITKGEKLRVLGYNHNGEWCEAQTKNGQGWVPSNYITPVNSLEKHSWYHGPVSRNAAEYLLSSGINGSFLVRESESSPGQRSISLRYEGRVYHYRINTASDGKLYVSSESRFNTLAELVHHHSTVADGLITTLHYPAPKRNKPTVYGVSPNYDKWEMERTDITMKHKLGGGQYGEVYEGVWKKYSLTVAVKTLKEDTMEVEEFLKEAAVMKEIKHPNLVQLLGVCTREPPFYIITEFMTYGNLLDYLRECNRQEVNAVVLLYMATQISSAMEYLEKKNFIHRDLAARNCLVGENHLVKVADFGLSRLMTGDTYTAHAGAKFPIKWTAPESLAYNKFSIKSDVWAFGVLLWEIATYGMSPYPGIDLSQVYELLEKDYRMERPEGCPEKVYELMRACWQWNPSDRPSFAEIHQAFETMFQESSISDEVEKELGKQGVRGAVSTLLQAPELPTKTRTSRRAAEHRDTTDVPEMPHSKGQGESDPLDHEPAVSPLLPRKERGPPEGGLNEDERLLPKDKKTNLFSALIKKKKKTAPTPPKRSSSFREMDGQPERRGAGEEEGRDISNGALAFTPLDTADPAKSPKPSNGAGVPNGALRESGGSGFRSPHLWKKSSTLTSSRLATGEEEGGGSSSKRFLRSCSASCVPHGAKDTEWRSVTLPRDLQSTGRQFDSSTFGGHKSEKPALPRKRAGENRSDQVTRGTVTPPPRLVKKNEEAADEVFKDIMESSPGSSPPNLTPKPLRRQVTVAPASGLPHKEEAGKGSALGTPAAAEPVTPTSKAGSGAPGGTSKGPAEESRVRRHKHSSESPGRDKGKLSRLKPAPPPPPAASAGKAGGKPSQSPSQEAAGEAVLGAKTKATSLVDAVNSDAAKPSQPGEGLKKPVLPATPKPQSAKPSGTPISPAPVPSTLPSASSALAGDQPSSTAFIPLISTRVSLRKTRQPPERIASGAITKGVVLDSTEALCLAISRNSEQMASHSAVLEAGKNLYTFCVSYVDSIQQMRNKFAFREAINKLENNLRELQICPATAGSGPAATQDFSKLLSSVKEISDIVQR
The target in assay [13] is T4, Serine/threonine-protein kinase Chk1 (Homo sapiens, UniProt O14757).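 Note: measured as one member of a kinome-wide kinase profiling panel.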
T4 sequence (O14757 whole entry): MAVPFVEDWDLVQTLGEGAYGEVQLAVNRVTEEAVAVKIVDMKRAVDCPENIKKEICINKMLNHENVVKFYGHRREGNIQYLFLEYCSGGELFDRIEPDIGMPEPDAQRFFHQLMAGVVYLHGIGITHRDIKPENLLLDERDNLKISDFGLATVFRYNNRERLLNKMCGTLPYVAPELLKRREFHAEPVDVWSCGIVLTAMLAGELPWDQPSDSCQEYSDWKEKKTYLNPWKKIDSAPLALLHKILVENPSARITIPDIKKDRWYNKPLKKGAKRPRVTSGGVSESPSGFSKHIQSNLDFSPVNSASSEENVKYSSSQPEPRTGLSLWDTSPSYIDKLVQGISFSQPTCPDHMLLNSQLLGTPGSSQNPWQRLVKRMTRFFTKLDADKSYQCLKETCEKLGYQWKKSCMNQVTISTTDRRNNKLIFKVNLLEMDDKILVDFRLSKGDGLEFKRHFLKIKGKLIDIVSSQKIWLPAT
Format: functional.

In assay [14] the target is Platelet-derived growth factor receptor beta (Homo sapiens, UniProt P09619). Format: functional.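 Note: value comes from a kinome panel, with PDGFRB tested as one panel member.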
For assay [15], the target named is Protein kinase C theta type (Homo sapiens, UniProt Q04759). Nature of the assay: Navigating the Kinome. Panel member name: PRKCQ. It counts as functional.
Protein kinase C theta type, sequence (Q04759 whole entry): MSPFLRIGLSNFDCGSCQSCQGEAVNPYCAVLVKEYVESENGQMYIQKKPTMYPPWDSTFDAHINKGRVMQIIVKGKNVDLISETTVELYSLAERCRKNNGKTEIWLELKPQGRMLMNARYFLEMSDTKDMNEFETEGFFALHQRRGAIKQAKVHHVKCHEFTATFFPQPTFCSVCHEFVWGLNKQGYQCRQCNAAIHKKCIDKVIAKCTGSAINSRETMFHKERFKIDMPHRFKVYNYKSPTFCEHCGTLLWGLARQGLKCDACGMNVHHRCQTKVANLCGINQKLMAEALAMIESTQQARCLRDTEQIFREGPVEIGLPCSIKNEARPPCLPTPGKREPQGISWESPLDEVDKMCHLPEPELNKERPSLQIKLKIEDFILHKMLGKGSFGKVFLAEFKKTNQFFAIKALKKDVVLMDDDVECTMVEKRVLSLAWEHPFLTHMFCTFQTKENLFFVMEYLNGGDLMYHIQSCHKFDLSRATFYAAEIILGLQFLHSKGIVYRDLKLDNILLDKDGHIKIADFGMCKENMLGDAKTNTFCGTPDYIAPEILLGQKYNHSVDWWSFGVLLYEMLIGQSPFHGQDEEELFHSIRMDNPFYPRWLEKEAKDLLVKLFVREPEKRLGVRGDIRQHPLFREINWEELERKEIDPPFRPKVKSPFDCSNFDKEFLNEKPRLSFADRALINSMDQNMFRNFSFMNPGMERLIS
Assay [16] addresses Macrophage colony-stimulating factor 1 receptor (Homo sapiens, UniProt P07333). Format: functional.
Assay [17] deals with LIM domain kinase 1 (Homo sapiens, UniProt P53667). Kind of assay: Navigating the Kinome. Panel member name: LIMK1. Format: functional.
LIM domain kinase 1, sequence (P53667 whole entry, the tested form may be a part): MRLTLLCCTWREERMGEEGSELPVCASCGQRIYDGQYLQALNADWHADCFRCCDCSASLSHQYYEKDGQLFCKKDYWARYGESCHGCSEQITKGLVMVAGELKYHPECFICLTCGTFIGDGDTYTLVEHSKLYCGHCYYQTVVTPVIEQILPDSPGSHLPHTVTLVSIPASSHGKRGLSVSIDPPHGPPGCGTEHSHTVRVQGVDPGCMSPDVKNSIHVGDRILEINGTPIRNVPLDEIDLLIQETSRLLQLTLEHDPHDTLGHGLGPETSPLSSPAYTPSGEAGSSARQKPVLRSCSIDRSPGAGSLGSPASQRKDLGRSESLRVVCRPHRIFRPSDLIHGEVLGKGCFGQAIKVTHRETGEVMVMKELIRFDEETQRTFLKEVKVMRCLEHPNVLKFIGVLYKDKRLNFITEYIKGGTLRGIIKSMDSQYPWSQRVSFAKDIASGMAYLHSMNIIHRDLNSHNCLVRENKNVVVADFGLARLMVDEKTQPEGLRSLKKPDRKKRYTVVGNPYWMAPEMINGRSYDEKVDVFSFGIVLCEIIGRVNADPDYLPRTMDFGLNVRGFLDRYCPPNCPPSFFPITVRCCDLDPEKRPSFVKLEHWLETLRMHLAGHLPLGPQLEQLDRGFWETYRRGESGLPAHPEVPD
The target in assay [18] is Cyclin-dependent kinase 9 (Homo sapiens, UniProt P50750). Format: functional.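 Note: value from the CDK9 entry of a kinome-spanning kinase panel.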
Assay [19] concerns the target Cyclin-dependent kinase 19 (Homo sapiens, UniProt Q9BWU1). Kind of assay: Navigating the Kinome. Panel member name: CDC2L6. Format: functional.
Assay [20] concerns the target ALK tyrosine kinase receptor (Homo sapiens, UniProt Q9UM73). It counts as functional.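 Note: ALK tested as one member of a kinase panel screen.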
The target of assay [21] is T5, Aurora kinase A (Homo sapiens, UniProt O14965).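 Note: value from the Navigating the Kinome kinase panel profiling, panel entry STK6.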
T5 sequence (O14965 whole entry): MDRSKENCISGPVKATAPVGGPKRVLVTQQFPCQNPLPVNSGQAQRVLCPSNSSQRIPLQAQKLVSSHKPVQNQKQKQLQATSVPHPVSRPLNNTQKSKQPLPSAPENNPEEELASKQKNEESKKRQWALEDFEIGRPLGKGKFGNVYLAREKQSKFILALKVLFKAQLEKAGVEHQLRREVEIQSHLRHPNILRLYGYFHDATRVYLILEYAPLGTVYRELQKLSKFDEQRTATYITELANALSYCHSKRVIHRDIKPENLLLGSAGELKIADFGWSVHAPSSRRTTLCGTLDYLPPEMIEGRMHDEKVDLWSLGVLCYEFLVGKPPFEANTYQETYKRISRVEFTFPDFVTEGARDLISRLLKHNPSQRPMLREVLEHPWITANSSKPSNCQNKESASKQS
Format: functional.

The target of assay [22] is cAMP-dependent protein kinase catalytic subunit alpha (Homo sapiens, UniProt P17612). It counts as functional.
Assay [23] has as its target T1, Neuropeptides B/W receptor type 1. Kind of assay: GPR7 antagonist potency, late-stage follow-up, cell-based, fluorescence, dose response, set 6 (AID 588583). Format: functional.
For assay [24], the target named is T2, Melanin-concentrating hormone receptor 1. Kind of assay: Late-stage fluorescence-based counterscreen for antagonists of the G-protein coupled receptor 7 (GPR7): cell-based dose response assay to identify antagonists of the melanin-concentrating hormone receptor 1 (MCHR1) Set 6. Format: functional.
In assay [25] the target is T6, DNA dC->dU-editing enzyme APOBEC-3A (Homo sapiens, UniProt P31941). Nature of the assay: SAR analysis of small molecule inhibitors of APOBEC3A DNA Deaminase via a fluorescence-based single-stranded DNA deaminase assay. It counts as functional. To be noted: read-out: IC50_Mean.
T6 sequence (P31941 whole entry): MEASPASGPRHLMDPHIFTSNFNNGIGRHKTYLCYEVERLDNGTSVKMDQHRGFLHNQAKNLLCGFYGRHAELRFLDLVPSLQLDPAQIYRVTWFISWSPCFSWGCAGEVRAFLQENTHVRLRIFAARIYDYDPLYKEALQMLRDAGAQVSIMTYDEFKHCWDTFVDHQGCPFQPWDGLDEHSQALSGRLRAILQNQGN
In assay [26] the target is T7, Bcl-2-like protein 10 (Homo sapiens, UniProt Q9HD36).
T7 sequence (Q9HD36 whole entry): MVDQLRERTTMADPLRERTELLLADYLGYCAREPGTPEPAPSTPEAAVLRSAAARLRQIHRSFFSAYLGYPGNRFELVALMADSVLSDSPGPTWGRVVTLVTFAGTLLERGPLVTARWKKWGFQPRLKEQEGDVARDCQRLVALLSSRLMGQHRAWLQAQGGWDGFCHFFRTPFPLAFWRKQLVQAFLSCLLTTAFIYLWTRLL
Kind of assay: displacers of TR3 peptide from Bcl-B, primary screen, selectivity assay for Bfl-1 inhibitor project, biochemical, fluorescence polarization, FITC-TR3 peptide (AID 748).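 Note: fluorescence polarization from a fluorescein-labelled TR3 peptide binding purified Bcl-B.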

The target in assay [27] is T8, Protein Tat (Human immunodeficiency virus type 1 group M subtype B (isolate HXB2)(HIV-1), UniProt P04608).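 Note: tat binding to TAR RNA read out by fluorescence polarization.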
T8 sequence (P04608 whole entry): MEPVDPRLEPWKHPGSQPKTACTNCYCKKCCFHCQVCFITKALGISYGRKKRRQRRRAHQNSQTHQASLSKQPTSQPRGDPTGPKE
Format: functional.

Assay [28] has as its target T9, DNA dC->dU-editing enzyme APOBEC-3G (Homo sapiens, UniProt Q9HC16). Nature of the assay: SAR analysis of small molecule inhibitors of APOBEC3G DNA Deaminase via a fluorescence-based single-stranded DNA deaminase assay - Set 2. It counts as functional. To be noted: read-out: IC50_Mean.
In assay [29] the target is T6, DNA dC->dU-editing enzyme APOBEC-3A. Kind of assay: SAR analysis of small molecule inhibitors of APOBEC3A DNA Deaminase via a fluorescence-based single-stranded DNA deaminase assay - Set 2. Format: functional. To be noted: read-out: IC50_Mean.
Assay [30] deals with T9, DNA dC->dU-editing enzyme APOBEC-3G. Nature of the assay: APOBEC3G deaminase inhibitors, SAR follow-up, biochemical, fluorescence, single-stranded DNA substrate (AID 602136). It counts as functional. To be noted: read-out: IC50_Mean.

T9 sequence (Q9HC16 whole entry): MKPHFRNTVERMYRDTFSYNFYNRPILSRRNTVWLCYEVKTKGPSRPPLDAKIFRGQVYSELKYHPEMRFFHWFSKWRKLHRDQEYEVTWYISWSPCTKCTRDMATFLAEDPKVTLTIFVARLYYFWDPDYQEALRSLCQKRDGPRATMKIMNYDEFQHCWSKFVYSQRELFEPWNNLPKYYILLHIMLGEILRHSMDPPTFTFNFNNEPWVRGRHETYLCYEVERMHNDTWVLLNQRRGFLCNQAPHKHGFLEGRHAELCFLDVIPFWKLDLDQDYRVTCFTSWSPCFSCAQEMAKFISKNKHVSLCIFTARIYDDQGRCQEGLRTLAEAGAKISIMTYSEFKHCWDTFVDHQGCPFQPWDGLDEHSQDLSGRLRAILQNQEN
Death-associated protein kinase 3, sequence (O43293 whole entry): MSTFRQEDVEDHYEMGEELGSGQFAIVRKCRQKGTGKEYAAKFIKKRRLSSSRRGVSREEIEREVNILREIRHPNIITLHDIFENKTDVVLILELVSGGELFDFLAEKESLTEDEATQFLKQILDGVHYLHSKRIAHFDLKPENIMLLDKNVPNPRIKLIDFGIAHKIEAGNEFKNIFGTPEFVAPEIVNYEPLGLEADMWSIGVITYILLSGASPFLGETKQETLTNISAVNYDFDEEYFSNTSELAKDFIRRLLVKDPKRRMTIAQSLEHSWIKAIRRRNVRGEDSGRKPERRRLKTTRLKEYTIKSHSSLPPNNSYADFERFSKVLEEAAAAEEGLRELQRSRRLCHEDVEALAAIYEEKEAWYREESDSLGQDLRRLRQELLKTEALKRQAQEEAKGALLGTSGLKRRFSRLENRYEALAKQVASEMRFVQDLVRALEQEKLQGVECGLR

Regarding `COc1ccc(Oc2c(C=O)cnn(Cc3cccc4ccccc34)c2=O)cc1`, the IC50 is 1.76 µM (active) in [1] and 0.91 µM (active) in [2].

Regarding `Cc1cc(C)n(C(C)C(C)C(=O)O)n1` (stereo not given), the EC50 in [3], in [4] and in assay [5] was > 100 µM (inactive) each time.

By Ki is commonly meant a measure of affinity in units of concentration, obtained from inhibition or displacement. For `Nc1ccc(-c2cccn3c(=O)[nH]nc23)cc1`, the inhibition constant (Ki) is 63.1 µM (active) in [6]; 3.16 µM (active) in assay [7]; > 79.4 µM (inactive) in assay [8]; 79.4 µM (active) in assay [9]; 39.8 µM (active) in [10]; 12.6 µM (active) in assay [11]. Further, the Ki in assay [12] was 50.1 µM (active); in [13] it was 12.6 µM (active); in assay [14] it was > 79.4 µM (inactive); in assay [15], > 100 µM (inactive); in assay [16], > 100 µM (inactive); in [17], 31.6 µM (active). The Ki in [18] was > 63.1 µM (inactive); in assay [19], > 100 µM (inactive); in assay [20], 6.31 µM (active); in assay [21], > 63.1 µM (inactive); in assay [22] it was 50.1 µM (active).

Turning to `N#CC(c1ccccc1)c1ccnn(Cc2cccc3ccccc23)c1=O` (stereo not given), the IC50 in assay [23] and in assay [24] was > 20 µM (inactive) each time.

For `Cc1ccc(C)n1Cc1ccc(C(=O)O)cc1`, the IC50 in assay [25] was 52.6 µM (inactive); in assay [26], 6.93 µM (active); in assay [27], 3.45 µM (inconclusive); in [28] it was 1.98 µM (active); in [29], 4.11 µM (active); in assay [30] it was 39.3 µM (inactive).
